Measurements: US20240041765A1, “ORAL LIQUID SUSPENSION OF PAN-RAF KINASE INHIBITOR” (DAY ONE BIOPHARMACEUTICALS, INC., priority 2022, published 2024)

Assay: Single oral dose mouse PK in male CD-1 mice
Type: in vivo
Conditions: plasma, single oral dose 50 mg/kg, Mean ± SD, n = 3, vehicle: Group 1 100% PEG400, Groups 2-3 DI water, Group 4 0.5% methylcellulose in water (w/v)
Protocol: Amorphous solid dispersions of Compound A in aqueous suspension formulations were administered via oral gavage in male CD-1 mice to assess Compound A plasma exposure. Pharmacokinetics (PK) of Compound A crystalline drug substance dissolved in organic solvent (PEG400) were used to generate a solution formulation—also included as the comparator group in this study. The concentrations of Compound A in mouse plasma were quantified with a qualified LC-MS/MS method.
Each oral dosing group consisted of 3 male CD-1 mice. At dosing, the animals weighted between 0.0297 to 0.0376 kg. Animals were not fasted prior to oral administration in this study. Compound A drug substances in corresponding dosing vehicles were administered by oral route using polypropylene gavage tube to CD-1 mice. Serial blood samples were collected at 0.25, 0.50, 1, 4, 8 and 24 hours post-dose. Serial blood samples were collected from a tail vein or another approved method at 0.25, 0.50, 1, 4, 8 hours post-dose. Terminal blood collection were collected via cardiac puncture at 24 hours post-dose.
Blood samples were collected into K2EDTA tubes according to in-life study protocol and immediately placed on wet ice and then centrifuged for 10 minutes at 3500 rpm for plasma preparation. All plasma samples were placed in 96-well strip-tube rack and stored in freezer until plasma analysis. Immediately following terminal blood collection, the brain tissue was collected for each animal. Each tissue was collected into pre-weighed tube and the weight of the tissue sample was determined. Samples were flash frozen and kept on dry ice until stored at −70° C. prior to sample processing and analysis. Table 27 provides the study design for the oral administration of Compound A in mice and summary of mouse PK parameters.
Non compartmental pharmacokinetic (NCA) analysis was performed on plasma concentration data using WinNonlin module in the Phoenix Platform (version 8.3.1 or above, Certara Inc., Princeton, NJ 08540). Calculations were performed using nominal sampling times in the pharmacokinetic analysis. All pharmacokinetic parameters and summary statistics are reported to 3 significant digits except for Tmax, which is reported to 2 decimal places. • Cmax: Observed peak blood/plasma concentration • Tmax: Time to reach observed peak blood/plasma concentration • kel: Elimination rate constant determined by linear regression analysis of selected time points in the apparent terminal phase of the log plasma concentration vs. time curve (not reported) • t1/2: Apparent terminal half-life calculated as ln(2)/kel • MRT: Mean time a drug molecule resides in body • AUC0-last: Area under the plasma concentration vs. time curve from 0 to the last quantifiable concentration calculated by the linear trapezoidal method • AUC0-inf: Area under the plasma concentration vs. time curve from 0 h to infinity, calculated as AUC0-last+Clast/kel

AUC0-inf: 407 ± 20.4 µg·h/mL
AUC0-last: 300 ± 24.7 µg·h/mL
Cmax: 18300 ± 1510 ng/mL
MRTlast: 9.42 ± 0.573 h
Tmax: 8.00 ± 0.00 h
t1/2: 12.7 ± 2.30 h
SMILES: C[C@@H](NC(=O)c1ncnc(N)c1Cl)c1ncc(C(=O)Nc2cc(C(F)(F)F)c(Cl)cn2)s1 [DAY 101 API]
